Source: US20230391725A1, “MODULATORS OF THE INTEGRATED STRESS RESPONSE PATHWAY” (Evotec International GmbH, priority 2020, published 2023)

system: ATF4; experiment: HEK-ATF4 High Content Imaging assay (prevention of Tunicamycin induced ISR); type: cell-based; conditions: Homo sapiens, Wild-type HEK293 cells, 6 h incubation, ATF4 signal ratio between nucleus and cytoplasm
Procedure: Example compounds were tested in the HEK-ATF4 High Content Imaging assay to assess their pharmacological potency to prevent Tunicamycin induced ISR. Wild-type HEK293 cells were plated in 384-well imaging assay plates at a density of 12,000 cells per well in growth medium (containing DMEM/F12, 10% FBS, 2 mM L-Glutamine, 100 U/mL Penicillin—100 μg/mL Streptomycin) and incubated at 37° C., 5% CO2. 24 h later, the medium was changed to 50 μL assay medium per well (DMEM/F12, 0.3% FBS, 2mM L-Glutamine, 100 U/mL Penicillin—100 μg/mL Streptomycin). Example compounds were serially diluted in DMSO, spotted into intermediate plates and prediluted with assay medium containing 3.3 […] Tunicamycin to give an 11-fold excess of final assay concentration. In addition to the example compound testing area, the plates also contained multiples of control wells for assay normalization purposes, wells containing Tunicamycin but no example compounds (High control), as well as wells containing neither example compound nor Tunicamycin (Low control). The assay was started by transferring 5 μL from the intermediate plate into the assay plates, followed by incubation for 6 h at 37° C., 5% CO2. Subsequently, cells were fixed (4% PFA in PBS, 20 min at r.t.) and submitted to indirect ATF4 immunofluorescence staining (primary antibody rabbit anti ATF4, clone D4B8, Cell Signaling Technologies; secondary antibody Alexa Fluor 488 goat anti-rabbit IgG (H+L), Thermofisher Scientific). Nuclei were stained using Hoechst dye (Thermofisher Scientific), and plates were imaged on an Opera Phenix High Content imaging platform equipped with 405 nm and 488 nm excitation. Finally, images were analyzed using script based algorithms. The main readout HEK-ATF4 monitored the ATF4 signal ratio between nucleus and cytoplasm. Tunicamycin induced an increase in the overall ATF4 ratio signal, which was prevented by ISR modulating example compounds. In addition, HEK-CellCount readout was derived from counting the number of stained nuclei corresponding to healthy cells. This readout served as an internal toxicity control.

With O=C(COc1ccc(Cl)c(F)c1)N[C@H]1CC[C@H](C(=O)N[C@H]2C[C@@H](OC(F)(F)F)C2)NC1 [Example 27, (2R,5S)-5-[2-(4-chloro-3-fluorophenoxy)acetamido]-N-[(1s,3s)-3-(trifluoromethoxy)cyclobutyl]piperidine-2-carboxamide] as the compound, how does the IC50 read?
Its IC50 is 500 to 2000 nM.

How did the IC50 turn out when Cc1cc(C)cc(NC(=O)[C@H]2CC[C@H](NC(=O)COc3ccc(Cl)c(F)c3)CN2)c1 [Example 28, (2R,5S)-5-[2-(4-chloro-3-fluorophenoxy)acetamido]-N-(3,5-dimethylphenyl)piperidine-2-carboxamide] was run?
Its IC50 is 2000 to 15000 nM.

How did the IC50 turn out when O=C(COc1ccc(Cl)c(F)c1)N[C@H]1CC[C@H](C(=O)NCCCCC(F)(F)F)NC1 [Example 29, (2R,5S)-5-[2-(4-chloro-3-fluorophenoxy)acetamido]-N-(5,5,5-trifluoropentyl)piperidine-2-carboxamide] was run?
The IC50 was 2000 to 15000 nM.

Which IC50 does the source give for O=C(COc1ccc(Cl)c(F)c1)N[C@H]1CC[C@H](C(=O)Nc2cccc(OC(F)F)c2)NC1 [Example 30, (2R,5S)-5-[2-(4-chloro-3-fluorophenoxy)acetamido]-N-[3-(difluoromethoxy)phenyl]piperidine-2-carboxamide] here?
The IC50 was 500 to 2000 nM.

For O=C(COc1ccc(Cl)c(F)c1)N[C@@H]1CC[C@@H](C(=O)Nc2cccc(C(F)(F)F)c2)NC1 [Example 31, (2S,5R)-5-[2-(4-chloro-3-fluorophenoxy)acetamido]-N-[3-(trifluoromethyl)phenyl]piperidine-2-carboxamide], which IC50 is on record?
The IC50 was 1 to 500 nM.

O=C(COc1ccc(Cl)c(F)c1)N[C@H]1CC[C@H](C(=O)Nc2cc(C(F)(F)F)cc(C(F)(F)F)c2)NC1 [Example 33, (2R,5S)-N-[3,5-bis(trifluoromethyl)phenyl]-5-[2-(4-chloro-3-fluorophenoxy)acetamido]piperidine-2-carboxamide] was tested. Which IC50 did it give?
Its IC50 is 500 to 2000 nM.

With O=C(COc1ccc(Cl)c(F)c1)N[C@H]1CC[C@H](C(=O)Nc2ccn(C(F)(F)F)n2)NC1 [Example 34, (2R,5S)-5-[2-(4-chloro-3-fluorophenoxy)acetamido]-N-[1-(trifluoromethyl)-1H-pyrazol-3-yl]piperidine-2-carboxamide] as the compound, how does the IC50 read?
Its IC50 is 500 to 2000 nM.

Which IC50 does the source give for O=C(COc1ccc(Cl)c(F)c1)N[C@H]1CC[C@H](C(=O)Nc2cc(C(F)(F)F)ccc2F)NC1 [Example 35, (2R,5S)-5-[2-(4-chloro-3-fluorophenoxy)acetamido]-N-[2-fluoro-5-(trifluoromethyl)phenyl]piperidine-2-carboxamide] here?
The IC50 was 500 to 2000 nM.

O=C(COc1ccc(Cl)c(F)c1)N[C@H]1CC[C@H](C(=O)Nc2cccc(C(F)(F)F)c2F)NC1 [Example 36, (2R,5S)-5-[2-(4-chloro-3-fluorophenoxy)acetamido]-N-[2-fluoro-3-(trifluoromethyl)phenyl]piperidine-2-carboxamide] was tested. Which IC50 did it give?
The IC50 was 1 to 500 nM.

Which IC50 does the source give for O=C(COc1ccc(Cl)c(F)c1)N[C@H]1CC[C@H](C(=O)Nc2cccc(OC(F)(F)F)n2)NC1 [Example 37, (2R,5S)-5-[2-(4-chloro-3-fluorophenoxy)acetamido]-N-[6-(trifluoromethoxy)pyridin-2-yl]piperidine-2-carboxamide] here?
Its IC50 is 1 to 500 nM.

For O=C(COc1ccc(Cl)c(F)c1)N[C@H]1CC[C@H](C(=O)Nc2cc(C(F)(F)F)ccn2)NC1 [Example 38, (2R,5S)-5-[2-(4-chloro-3-fluorophenoxy)acetamido]-N-[4-(trifluoromethyl)pyridin-2-yl]piperidine-2-carboxamide], which IC50 is on record?
Its IC50 is 500 to 2000 nM.

How did the IC50 turn out when O=C(COc1ccc(Cl)c(F)c1)N[C@H]1CC[C@H](C(=O)Nc2ccc3c(c2)OC(F)(F)O3)NC1 [Example 39, (2R,5S)-5-[2-(4-chloro-3-fluorophenoxy)acetamido]-N-(2,2-difluoro-2H-1,3-benzodioxol-5-yl)piperidine-2-carboxamide] was run?
The IC50 was 1 to 500 nM.

How did the IC50 turn out when O=C(COc1ccc(Cl)c(F)c1)N[C@H]1CC[C@H](C(=O)N2Cc3ccc(C(F)(F)F)cc3C2)NC1 [Example 40, 2-(4-chloro-3-fluorophenoxy)-N-[(3S,6R)-6-[5-(trifluoromethyl)-2,3-dihydro-1H-isoindole-2-carbonyl]piperidin-3-yl]acetamide] was run?
The IC50 was 1 to 500 nM.

For O=C(COc1ccc(Cl)c(F)c1)N[C@H]1CC[C@H](C(=O)N2Cc3ccc(OC(F)(F)F)cc3C2)NC1 [Example 41, 2-(4-chloro-3-fluorophenoxy)-N-[(3S,6R)-6-[5-(trifluoromethoxy)-2,3-dihydro-1H-isoindole-2-carbonyl]piperidin-3-yl]acetamide], which IC50 is on record?
The IC50 was 1 to 500 nM.

For Cn1nc(CNC(=O)[C@H]2CC[C@H](NC(=O)COc3ccc(Cl)c(F)c3)CN2)cc1C(F)(F)F [Example 42, (2R,5S)-5-[2-(4-chloro-3-fluorophenoxy)acetamido]-N-{[1-methyl-5-(trifluoromethyl)-1H-pyrazol-3-yl]methyl}piperidine-2-carboxamide], which IC50 is on record?
The IC50 was 1 to 500 nM.

With O=C(COc1ccc(Cl)c(F)c1)N[C@H]1CC[C@H](C(=O)NCc2cc(C(F)(F)F)on2)NC1 [Example 43, (2R,5S)-5-[2-(4-chloro-3-fluorophenoxy)acetamido]-N-{[5-(trifluoromethyl)-1,2-oxazol-3-yl]methyl}piperidine-2-carboxamide] as the compound, how does the IC50 read?
The IC50 was 500 to 2000 nM.

Which IC50 does the source give for O=C(COc1ccc(Cl)c(F)c1)N[C@H]1CC[C@H](C(=O)NCc2cc(C(F)(F)F)ccn2)NC1 [Example 44, (2R,5S)-5-[2-(4-chloro-3-fluorophenoxy)acetamido]-N-{[4-(trifluoromethyl)pyridin-2-yl]methyl}piperidine-2-carboxamide] here?
The IC50 was 2000 to 15000 nM.

O=C(COc1ccc(Cl)c(F)c1)N[C@H]1CC[C@H](C(=O)N2CCc3c2cccc3C(F)(F)F)NC1 [Example 45, 2-(4-chloro-3-fluorophenoxy)-N-[(3S,6R)-6-[4-(trifluoromethyl)-2,3-dihydro-1H-indole-1-carbonyl]piperidin-3-yl]acetamide] was tested. Which IC50 did it give?
Its IC50 is 2000 to 15000 nM.

With O=C(COc1ccc(Cl)c(F)c1)N[C@H]1CC[C@H](C(=O)Nc2ccn(C3CC3(F)F)n2)NC1 (stereo partly drawn) [Example 46, (2R,5S)-5-[2-(4-chloro-3-fluorophenoxy)acetamido]-N-[1-(2,2-difluorocyclopropyl)-1H-pyrazol-3-yl]piperidine-2-carboxamide] as the compound, how does the IC50 read?
Its IC50 is 2000 to 15000 nM.

How did the IC50 turn out when O=C(COc1ccc(Cl)c(F)c1)N[C@H]1CC[C@H](C(=O)NC2CCC(OC(F)(F)F)C2)NC1 (stereo partly drawn) [Example 47, (2R,5S)-5-[2-(4-chloro-3-fluorophenoxy)acetamido]-N-[3-(trifluoromethoxy)cyclopentyl]piperidine-2-carboxamide] was run?
The IC50 was 500 to 2000 nM.

Which IC50 does the source give for O=C(COc1ccc(Cl)c(F)c1)N[C@H]1CC[C@H](C(=O)Nc2ccnc(C(F)(F)F)n2)NC1 [Example 49, (2R,5S)-5-[2-(4-chloro-3-fluorophenoxy)acetamido]-N-[2-(trifluoromethyl)pyrimidin-4-yl]piperidine-2-carboxamide] here?
The IC50 was 1 to 500 nM.

How did the IC50 turn out when O=C(COc1ccc(Cl)c(F)c1)N[C@H]1CC[C@H](C(=O)Nc2cncc(C(F)(F)F)n2)NC1 [Example 51, (2R,5S)-5-[2-(4-chloro-3-fluorophenoxy)acetamido]-N-[6-(trifluoromethyl)pyrazin-2-yl]piperidine-2-carboxamide] was run?
The IC50 was 1 to 500 nM.

For CN1C[C@@H](NC(=O)COc2ccc(Cl)c(F)c2)CC[C@@H]1C(=O)Nc1cncc(C(F)(F)F)n1 [Example 52, (2R,5S)-5-[2-(4-chloro-3-fluorophenoxy)acetamido]-1-methyl-N-[6-(trifluoromethyl)pyrazin-2-yl]piperidine-2-carboxamide], which IC50 is on record?
Its IC50 is 1 to 500 nM.
